Measured values as given in PubChem BioAssay AID248 (DTP/NCI, 2004).
“And” between values parts separate entries of the source, which are not always exact repeats. Equal entries are not always repeated. Toxic doses and inconclusive results are not listed. No stated cut-off is given here; in the data, active means T/C of 150% or more; inactive means T/C below 125%.

System: L1210 leukemia ip in BDF1 mice, survival T/C
Assay: NCI In Vivo Anticancer Drug Screen. Data for tumor model L1210 Leukemia (intraperitoneal) in B6D2F1 (BDF1) mice
Conditions: endpoint: mean survival time, higher = longer survival
Summary of the method: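 Read-out is survival time, reported as the treated-group measurement over the vehicle-control measurement.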

[1] = dose: 100.0 mg/kg/injection, schedule: Q01DX001 (ip), vehicle: Klucel (hydroxypropylcellulose) (HPC)
[2] = dose: 200.0 mg/kg/injection, schedule: Q01DX001 (ip), vehicle: Klucel (hydroxypropylcellulose) (HPC)
[3] = dose: 400.0 mg/kg/injection, schedule: Q01DX001 (ip), vehicle: Klucel (hydroxypropylcellulose) (HPC)
[4] = dose: 100.0 mg/kg/injection, schedule: Q01DX001 (ip), vehicle: saline
[5] = dose: 200.0 mg/kg/injection, schedule: Q01DX001 (ip), vehicle: saline
[6] = dose: 400.0 mg/kg/injection, schedule: Q01DX001 (ip), vehicle: saline
[7] = dose: 25.0 mg/kg/injection, schedule: Q01DX009 (ip), vehicle: saline
[8] = dose: 50.0 mg/kg/injection, schedule: Q01DX009 (ip), vehicle: saline
[9] = dose: 100.0 mg/kg/injection, schedule: Q01DX009 (ip), vehicle: saline
[10] = dose: 100.0 mg/kg/injection, schedule: Q04DX003 (ip), vehicle: Klucel (hydroxypropylcellulose) (HPC)
[11] = dose: 200.0 mg/kg/injection, schedule: Q04DX003 (ip), vehicle: Klucel (hydroxypropylcellulose) (HPC)
[12] = dose: 400.0 mg/kg/injection, schedule: Q04DX003 (ip), vehicle: Klucel (hydroxypropylcellulose) (HPC)
[13] = dose: 100.0 mg/kg/injection, schedule: Q01DX009 (ip), vehicle: Klucel (hydroxypropylcellulose) (HPC)

Measured: T/C

O=C(NCCCl)NC1CCCCC1
inactive: [1] 88 % of control | [2] 89 % of control | [3] 100 % of control

CC(C)(C)NC(=O)Nc1ccc(Cl)c(Cl)c1
inactive: [4] 97 % of control | [5] 100 % of control | [6] 95 % of control

CC(C)C12CCC(C)(O1)C(O)C2O (configuration not stated)
inactive: [4] 111 % of control | [5] 104 % of control | [6] 106 % of control

O=[N+]([O-])c1ccc(C2OCCO2)cc1
inactive: dose: 100.0 mg/kg/injection, schedule: Q01DX001 (ip), vehicle: carboxymethylcellulose (CMC) 94 % of control | dose: 200.0 mg/kg/injection, schedule: Q01DX001 (ip), vehicle: carboxymethylcellulose (CMC) 91 % of control | dose: 400.0 mg/kg/injection, schedule: Q01DX001 (ip), vehicle: carboxymethylcellulose (CMC) 96 % of control

C[C@H]1CC2=CC(=O)CC[C@]2(C)[C@H]2CC[C@@]3(C)[C@@H](CC[C@]3(C)O)[C@H]12
inactive: dose: 12.5 mg/kg/injection, schedule: Q01DX009 (sc), vehicle: saline 102 % of control | [7] 97 % of control | dose: 25.0 mg/kg/injection, schedule: Q01DX009 (sc), vehicle: saline 107 % of control | dose: 50.0 mg/kg/injection, schedule: Q01DX001 (sc), vehicle: steriod suspending solution 101 % of control | [8] 100 % of control | dose: 50.0 mg/kg/injection, schedule: Q01DX009 (sc), vehicle: saline 103 % of control | dose: 100.0 mg/kg/injection, schedule: Q01DX001 (sc), vehicle: steriod suspending solution 101 % of control | [9] 94 % of control | dose: 100.0 mg/kg/injection, schedule: Q01DX009 (sc), vehicle: saline 100 % of control | dose: 200.0 mg/kg/injection, schedule: Q01DX001 (sc), vehicle: steriod suspending solution 107 % of control | dose: 200.0 mg/kg/injection, schedule: Q01DX009 (ip), vehicle: acetone 96 % of control | dose: 200.0 mg/kg/injection, schedule: Q01DX009 (ip), vehicle: saline 96 % of control | dose: 200.0 mg/kg/injection, schedule: Q01DX009 (sc), vehicle: acetone 101 % of control | dose: 400.0 mg/kg/injection, schedule: Q01DX001 (sc), vehicle: steriod suspending solution 101 % of control

CN(C)C=C1C(=O)NC(=O)NC1=O
inactive: dose: 25.0 mg/kg/injection, schedule: Q01DX001 (ip), vehicle: saline 96 % of control | [7] 95 % of control | dose: 50.0 mg/kg/injection, schedule: Q01DX001 (ip), vehicle: saline 103 % of control | [8] 106 % of control | [4] 102 % of control | [9] 106 % of control

Clc1c(CI)ccc(CI)c1Cl
inactive: dose: 6.25 mg/kg/injection, schedule: Q01DX009 (ip), vehicle: saline with Tween-80 100 % of control | dose: 12.5 mg/kg/injection, schedule: Q01DX009 (ip), vehicle: saline with Tween-80 92 % of control | dose: 25.0 mg/kg/injection, schedule: Q01DX009 (ip), vehicle: Klucel (hydroxypropylcellulose) (HPC) 93 % of control | dose: 25.0 mg/kg/injection, schedule: Q01DX009 (ip), vehicle: saline with Tween-80 92 % of control | dose: 50.0 mg/kg/injection, schedule: Q01DX009 (ip), vehicle: Klucel (hydroxypropylcellulose) (HPC) 108 % of control | dose: 50.0 mg/kg/injection, schedule: Q01DX009 (ip), vehicle: saline with Tween-80 89 % of control | [10] 89 % of control

Ic1ccccc1CNCCc1ccccc1
inactive: dose: 75.0 mg/kg/injection, schedule: Q01DX001 (ip), vehicle: other 93 % of control | dose: 150.0 mg/kg/injection, schedule: Q01DX001 (ip), vehicle: other 96 % of control | dose: 300.0 mg/kg/injection, schedule: Q01DX001 (ip), vehicle: other 96 % of control

Nc1nc2ncc(CN(C(=O)C(F)(F)F)c3ccc(C(=O)NC(CCC(=O)O)C(=O)O)cc3)nc2c(=O)[nH]1 (configuration not stated)
inactive: [1] 100 % of control | [2] 107 % of control | [3] 111 % of control

CC(C)C1C(C(N)=O)C(=O)OC1(C)C (configuration not stated)
inactive: [4] 96 % of control | [5] 98 % of control | [6] 96 % of control

CCOC(=O)CNC(=O)CO
inactive: dose: 100.0 mg/kg/injection, schedule: Q01DX001 (ip), vehicle: other 101 % of control | dose: 200.0 mg/kg/injection, schedule: Q01DX001 (ip), vehicle: other 95 % of control | dose: 400.0 mg/kg/injection, schedule: Q01DX001 (ip), vehicle: other 101 % of control

COC(=O)c1c(Cl)c(Cl)cc(Cl)c1Cl
inactive: dose: 100.0 mg/kg/injection, schedule: Q01DX009 (ip), vehicle: saline sonified 106 % of control | [10] 93 % of control | dose: 200.0 mg/kg/injection, schedule: Q01DX009 (ip), vehicle: saline sonified 113 % of control | [11] 98 % of control | dose: 400.0 mg/kg/injection, schedule: Q01DX009 (ip), vehicle: saline sonified 107 % of control | [12] 106 % of control

C/C(=C\c1ccccc1)C(=O)c1ccccc1
inactive: dose: 6.25 mg/kg/injection, schedule: Q01DX009 (ip), vehicle: water 109 % of control | dose: 12.5 mg/kg/injection, schedule: Q01DX009 (ip), vehicle: water 107 % of control | dose: 25.0 mg/kg/injection, schedule: Q01DX009 (ip), vehicle: water 101 % of control and 91 % of control | dose: 50.0 mg/kg/injection, schedule: Q01DX009 (ip), vehicle: water 95 % of control and 112 % of control | [13] 93 % of control | dose: 100.0 mg/kg/injection, schedule: Q01DX009 (ip), vehicle: other 113 % of control | dose: 100.0 mg/kg/injection, schedule: Q01DX009 (ip), vehicle: water 101 % of control and 106 % of control | dose: 100.0 mg/kg/injection, schedule: Q04DX002 (ip), vehicle: Klucel (hydroxypropylcellulose) (HPC) 100 % of control | dose: 100.0 mg/kg/injection, schedule: Q04DX003 (ip), vehicle: other 101 % of control | dose: 200.0 mg/kg/injection, schedule: Q01DX009 (ip), vehicle: Klucel (hydroxypropylcellulose) (HPC) 98 % of control | dose: 200.0 mg/kg/injection, schedule: Q01DX009 (ip), vehicle: other 101 % of control | dose: 200.0 mg/kg/injection, schedule: Q01DX009 (ip), vehicle: water 104 % of control and 107 % of control | dose: 200.0 mg/kg/injection, schedule: Q04DX002 (ip), vehicle: Klucel (hydroxypropylcellulose) (HPC) 92 % of control | dose: 200.0 mg/kg/injection, schedule: Q04DX003 (ip), vehicle: other 101 % of control | dose: 400.0 mg/kg/injection, schedule: Q01DX009 (ip), vehicle: Klucel (hydroxypropylcellulose) (HPC) 105 % of control | dose: 400.0 mg/kg/injection, schedule: Q01DX009 (ip), vehicle: other 108 % of control | dose: 400.0 mg/kg/injection, schedule: Q01DX009 (ip), vehicle: water 106 % of control | dose: 400.0 mg/kg/injection, schedule: Q04DX002 (ip), vehicle: Klucel (hydroxypropylcellulose) (HPC) 95 % of control | dose: 400.0 mg/kg/injection, schedule: Q04DX003 (ip), vehicle: other 100 % of control

COc1cc(/C=C2\CCC/C(=C\c3ccc(O)c(OC)c3)C2=O)ccc1O
inactive: [10] 93 % of control | [11] 87 % of control

CC(=O)C(=Cc1ccc(Cl)c(Cl)c1)C(C)=O
inactive: [13] 100 % of control | [10] 96 % of control | [11] 96 % of control | [12] 86 % of control
